In this assay the target is T1, androgen receptor (AR) (Homo sapiens, UniProt P10275).
T1 sequence (P10275 1-920): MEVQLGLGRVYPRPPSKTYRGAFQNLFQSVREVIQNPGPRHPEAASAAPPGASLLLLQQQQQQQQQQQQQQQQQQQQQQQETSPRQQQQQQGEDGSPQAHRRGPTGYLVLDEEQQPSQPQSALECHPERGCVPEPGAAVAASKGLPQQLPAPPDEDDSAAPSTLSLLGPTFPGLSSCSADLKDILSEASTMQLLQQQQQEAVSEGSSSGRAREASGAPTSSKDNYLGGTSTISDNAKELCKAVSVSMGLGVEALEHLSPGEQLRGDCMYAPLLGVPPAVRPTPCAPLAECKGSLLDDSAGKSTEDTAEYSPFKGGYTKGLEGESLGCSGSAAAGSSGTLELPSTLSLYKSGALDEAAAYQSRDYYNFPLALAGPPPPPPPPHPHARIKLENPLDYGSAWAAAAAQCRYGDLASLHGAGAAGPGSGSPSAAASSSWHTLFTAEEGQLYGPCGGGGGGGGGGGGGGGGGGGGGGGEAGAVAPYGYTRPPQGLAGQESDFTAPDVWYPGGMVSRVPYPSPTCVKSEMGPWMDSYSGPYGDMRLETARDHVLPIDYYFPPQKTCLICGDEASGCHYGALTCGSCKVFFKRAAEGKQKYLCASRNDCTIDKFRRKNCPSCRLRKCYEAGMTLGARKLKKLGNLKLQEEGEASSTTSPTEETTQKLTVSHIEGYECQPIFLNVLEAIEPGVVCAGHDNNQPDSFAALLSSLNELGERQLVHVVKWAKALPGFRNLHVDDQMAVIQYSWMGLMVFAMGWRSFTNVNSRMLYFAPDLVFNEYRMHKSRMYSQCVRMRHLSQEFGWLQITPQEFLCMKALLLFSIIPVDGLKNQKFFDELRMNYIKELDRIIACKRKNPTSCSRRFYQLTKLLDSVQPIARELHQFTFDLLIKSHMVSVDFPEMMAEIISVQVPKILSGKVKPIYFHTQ
The experiment in a line: Agonistic effect of test compounds on androgen receptor (AR), LiveBLAzer FRET reporter cell assay. It is filed as cell-based. As to the method: Experimental Embodiment 1: Agonistic Effect of Test Compounds on Androgen Receptor (AR)
1. Preparation of Compounds, Placing in Plates:
1.1 Preparation of compounds: the test compounds were diluted to the working concentration, and each compound was diluted by 4 times with Echo for 10 concentration gradients, and the compounds were added to a 384-well cell plate according to the microplate layout diagram, with 200 nL per well;
1.2 AR cell assay medium: 87% Opti-MEM (reduced serum medium), 10% Dialyzed FBS (dialyzed fetal bovine serum), 1% NEAA (non-essential amino acids), 1% sodium pyruvate and 1% penicillin-streptomycin;
1.3 culture medium, trypsin and Dulbecco's phosphate buffer were preheated in a 37° C. water bath;
1.4 the original medium in the cell culture flask was removed, and the cells were washed once with 6 mL of Dulbecco's phosphate buffer;
1.5 3.5 mL of trypsin was added to the cell culture flask, and the flask was gently shaken to make the trypsin fully contact with the cells, the trypsin was removed; after aspirating the trypsin, the culture flask was placed in a 37° C. incubator containing 5% CO2 for about 1 minute;
1.6 the cells were resuspended with 10 mL of cell detection medium, and about 0.8 mL of cell suspension was taken out for counting (ViCell XR)
1.7 the cell suspension was diluted with culture medium to 2.5×10^5 cells per mL;
1.8 40 !IL of cell suspension was added to each well of the cell plate, and 40 μL of cell culture medium was added to the other wells, and the cells were incubated in a 37° C. incubator containing 5% CO2 for 16 hours.
2. Reading the Board and Analyzing Data:
2.1 Preparation of solution A: 182 μL of DMSO was added to 200 μg of LiveBLAzer™-FRET B/G/g substrate (CCF4-AM). The solution A was packaged and stored in a refrigerator at −20° C.;
2.2 preparation of 6×substrate buffer: 15 μL of solution A was added to 150 μL of solution B, and the mixture was vortexed evenly, then 2335 μL of solution C was added to the above solution and vortexed evenly;
2.3 the cell culture plate was taken out, and 8μL of 6×substrate buffer was added to each well, shaken for 1 minute, and centrifuged at 1000 rpm for 10 seconds; after sealing the membrane, the cells were incubated at 23° C. for 2 hours, and the plate was read with Envision, and the curve EC50 value was fitted by Prism software.

Regarding `N#Cc1ccc(N2CC3CC3C2C(O)C(F)(F)F)cc1Cl` (single isomer, unassigned) [Compound 3A], the EC50 came out at 0.81 nM. This lies in the sub-nanomolar range.

The term EC50 denotes the concentration at which the effect is half-maximal. Read a low EC50 as greater potency.

The record behind these values is patent US20230012570A1, “BICYCLIC COMPOUND USED AS SELECTIVE ANDROGEN RECEPTOR MODULATOR” (MEDSHINE DISCOVERY INC., priority 2019, published 2023).
